Data as given in PMC3410885, “6-Arylpyrido[2,3-d]pyrimidines as Novel ATP-Competitive Inhibitors of Bacterial D-Alanine:D-Alanine Ligase” (PLoS ONE, 2012).
Converted amounts (≈) assume the structure as drawn.

Tests used:
E. coli DdlB [1] = molecular target: T1, E. coli DdlB (Escherichia coli, UniProt P07862); assay: Isothermal titration calorimetry of binding to DdlB; settings: ITC, 37°C; for entropy contribution of binding ([drawing 6]) / standard Gibbs free energy of binding ([drawing 5]): calculated from the fitted parameters
T1 construct: polyhistidine (His) tag (N); made in house; host or cells: E. coli BL21(λDE3), vector pQE-30 UA (Qiagen)
Method: Two of the compounds, 14 and 33, were also tested by ITC to obtain thermodynamic parameters of the binding into DdlB active site. Heat changes upon binding of the ligand on the E. coli DdlB were measured directly, corrected for the heats of dilution, and the model function was fitted to the experimental data points (see the Experimental section).
The value of critical parameter for obtaining highly reliable thermodynamic data ( [drawing 10] ) was not optimal due to low inhibitors solubility and quite low binding constants. Nevertheless, the conclusions below can be drawn. Experiments for the two compounds result in similar binding constants (K b≈10^5 M^−1) (Table 1), but the driving forces for the binding differ (Figure 11). The binding of compound 14 to DdlB results from favourable enthalpy and entropy contributions. […] But still, compensation of the opposing effects at 33 results in similar [drawing 11] (and binding constant) as at 14, although there are less specific interactions between 33 and the protein as at 14.
The heat changes upon binding were measured using a VP-ITC microcalorimeter from MicroCal, LLC (Northampton, MA, USA). Purified DdlB stock solution in 20% glycerol was dialysed for 40 hours at 4°C (50 mM Hepes, pH = 8.0, 10 mM KCl, 10 mM (NH4)2SO4, 5 mM MgCl2, and 0.01% Triton X-114) prior to titration. The ligand solutions were prepared by adding a stock solution of 14 or 33 in DMSO to the dialysis buffer to obtain final 50 μM solution of the DdlB inhibitor in 5% DMSO. Successive aliquots (11–31 μl) of the degassed ligand solution were injected at 5–8 min intervals by a motor driven syringe (300 μl) into the degassed DdlB solution (approximately 2 μM, 5% DMSO) in the calorimeter cell (V = 1.386 ml) with constant stirring (300 rpm) at 37°C. At the end of experiment the final ratio of ligand:enzyme in the titration cell was about 6∶1. The titration data was further corrected for the heat changes observed in the control titration of ligand solution into the dialysis buffer, 5% DMSO, alone. The experimental data was analysed using the Origin 7.0 software provided by MicroCal and fitted by a home written program, based on the non-linear Levenberg–Marquardt χ^2 regression procedure, assuming a single binding site model (two parameter fit): [drawing 12] [drawing 13] where P, L, and PL represent DdlB, ligand, and DdlB-ligand complex, ΔH and [drawing 14] are the measured enthalpy upon aliquot addition and the standard enthalpy change of the binding reaction, [drawing 15] and [drawing 16] represent the total number of moles of ligand and DdlB-ligand complex in the titration cell, r is the bound ligand to total protein concentration,[P]tot, ratio and K b is the binding constant. A detailed explanation of the applied model equation is given in the Information S2.

[2] = tested on: E. coli strains (1411, AB734, SM1411, ES100); assay: Antibacterial activity stated for the E. coli strains together; format: cell-based; settings: Escherichia coli; read-out: MICs against all strains
Method: (§1) Selected DdlB inhibitors were tested for their antibacterial activity against two E. coli strains E. coli 1411 and E. coli AB734 (Table 2). […] Additionally, growth inhibition of efflux pump-deficient strains SM1411 (acrAB deficient derivative of 1411) and ES100 (tolC deficient derivative of AB734) was measured, and MICs were repeated for each strain in the presence of polymyxin B nonapeptide (PMBN) to assess the impact of outer-membrane permeability on antimicrobial activity.
(§2) Minimum inhibitory concentrations (MICs) were determined by broth microdilution against E. coli 1411, SM1411 (acrAB deficient derivative of 1411), AB734 and ES100 (tolC deficient derivative of AB734) according to CLSI guidelines. MICs were repeated for each strain in the presence of polymyxin B nonapeptide (4 μg/ml) to assess the impact of outer-membrane permeability on antimicrobial activity.

DdlB = molecular target: T2, DdlB (Escherichia coli, UniProt P07862); assay: Surface plasmon resonance binding to immobilised DdlB; settings: steady-state affinity model; 25°C; 50 mM Hepes, 150 mM NaCl, 5% DMSO; read-out: KD (SPR)
T2 construct: polyhistidine (His) tag (N); made in house; host or cells: E. coli BL21(λDE3), vector pQE-30 UA (Qiagen)
Method: The binding of the compounds 11, 13, 14, 24, 27, 33, and 35 to the target enzyme was confirmed using surface plasmon resonance (SPR) (Figure 10). Experiments were performed at conditions that enable long term stability of the enzyme. […] The enzyme was covalently attached to the surface of a sensor chip CM5 and compounds were titrated over the surface. The binding of all the compounds was characterised by fast association and dissociation rates. Equilibrium affinity constants, estimated from the steady-state binding levels are in agreement with enzymatic studies and ITC. In addition, the binding of other compounds was tested but insufficient solubility at higher concentrations of analytes in the running buffer precluded analysis.
Figure 10 SPR analysis of compounds binding to DdlB. Different concentrations of compounds were tested for the binding (left panels in all cases). The binding curves (right panels) were generated by ploting steady-state response levels, i.e. at the end of the association phase, vs concentration of the injected compound. For each compound 3–5 independent titrations were performed.
The binding constants were obtained by using a Biacore T100 (Biacore, GE Healthcare, USA). […] Two 1 min injections of 50 μg/ml DdlB diluted in 10 mM Na-acetate, pH 4.0 were applied on the second flow cell. The first flow cell was left unmodified and served as a control for non-specific binding of tested compounds. The remaining active groups on the surface of both flow cells were deactivated with a 7-min injection of ethanolamine. The level of immobilized enzyme was around 10000 response units.
Each analyte was titrated, with 3 or 4 repetitions, using different concentrations according to their solubility in running buffer (50 mM Hepes, 150 mM NaCl, 5% DMSO, pH 7.4), usually from 0,781 μM to 500 μM. One concentration was repeated at the end of the assay in each dilution series, in order to check the surface stability and repeatability. The association lasted 60 seconds at a flow-rate 30 μl/min. No regeneration was needed. All experiments were performed at 25°C. Sensorgrams were double referenced by subtracting the signal obtained in the empty flow cell and the injection of the buffer. The steady-state response levels were fitted using the Steady State Affinity model in Biacore T100 Evaluation software.

E. coli DdlB [3] = molecular target: T1, E. coli DdlB; assay: Colorimetric malachite green inhibition assay of DdlB; format: biochemical; settings: for Ki: against ATP (50-500 μM), D-Ala 10 mM, competitive model; for mode of inhibition of DdlB: kinetic analysis at different inhibitor and ATP concentrations; for IC50: malachite green assay, 700 μM D-Ala, 500 μM ATP, 37°C, 20 min, read-out: inhibitory activity on DdlB: IC50
Method: All of the synthesized 6-arylpyrido[2,3-d]pyrimidines 11–36 were assayed for in vitro inhibitory activity on E. coli DdlB by detecting orthophosphate generated during the enzymatic reaction using a Malachite green assay.
Inhibition of DdlB was measured at different inhibitor and ATP concentrations in order to determine Ki values and the mode-of-action of both compounds.
The target compounds were tested for their ability to inhibit the D-Ala-adding activity of DdlB ligase with the colorimetric malachite green method in which orthophosphate generated during the reaction is measured. Each compound was tested in duplicate at 100, 250 or 500 μM in a mixture, final volume 50 μL, containing 50 mM Hepes (pH 8.0), 5 mM MgCl2, 10 mM (NH4)2SO4, 10 mM KCl, 700 μM D-Ala, 500 μM ATP, purified His-tagged DdlB (diluted in 50 mM Hepes (pH 7.2) and 1 mM DTT) and the test compound dissolved in DMSO. The final concentration of DMSO was 5% (v/v). The reaction mixture was incubated at 37°C for 20 min, then quenched with 100 μL of Biomol reagent and absorbance at 650 nm was measured after 5 min. To exclude possible promiscuous inhibitors, all compounds were tested in the presence of Triton-114 (0.005%). Residual activities were calculated relative to control assays without the compounds and with DMSO.

E. coli BC enzyme = settings: read-out: IC50 for the E. coli BC enzyme; cited from earlier work
[4] = tested on: ES100 (tolC deficient derivative of AB734); assay: MIC by broth microdilution, ES100; format: cell-based, E. coli
Method: as §1, §2

[5] = tested on: SM1411 (acrAB deficient derivative of 1411); assay: MIC by broth microdilution, SM1411; format: cell-based, E. coli
Method: as §1, §2

Ddl = molecular target: Ddl; design: method as in PMID 14479178; settings: read-out: Ki of D-cycloserine on Ddl; cited from earlier work
[6] = with polymyxin B nonapeptide (4 μg/ml)

Row | SMILES | Kd (E. coli DdlB [1]) | standard enthalpy of binding ([drawing 4]) (E. coli DdlB [1]) | entropy contribution of binding ([drawing 6]) (E. coli DdlB [1]) | standard Gibbs free energy of binding ([drawing 5]) (E. coli DdlB [1]) | MIC [2] | Kd (DdlB) | Ki (E. coli DdlB [3]) | mode of inhibition of DdlB (E. coli DdlB [3]) | IC50 (E. coli DdlB [3]) | fold greater DdlB inhibitory potency than corresponding diamine 13 (E. coli DdlB [3]; ratio of IC50 values, 14 against 13) | IC50 (E. coli BC enzyme) | MIC ([4]; Escherichia coli, read-out: MIC ES100 (tolC)) | MIC ES100 +PMBN [4, 6] | MIC ([5]; Escherichia coli, read-out: MIC SM1411 (acrAB)) | MIC SM1411 +PMBN [5, 6] | melting point | Ki (Ddl)
1 | COc1cc(OC)cc(-c2cc3cnc(N)nc3nc2NC(=O)NC(C)(C)C)c1 [Compound 14, 1-(2-amino-6-(3,5-dimethoxyphenyl)pyrido[2,3-d]pyrimidin-7-yl)-3-tert-butylurea] | 10 µM | -4 kcal/mol | 3 kcal/mol | -7 kcal/mol | > 256 µg/mL | 19 ± 6.6 µM | 31 ± 4 µM | ATP competitive inhibitors | 340 µM | 2.6 fold |  |  |  |  |  |  | 
2 | CC(C)(C)NC(=O)Nc1nc2nc(N)ncc2cc1-c1c(Cl)cccc1Cl [Compound 27, 1-(2-amino-6-(2,6-dichlorophenyl)pyrido[2,3-d]pyrimidin-7-yl)-3-tert-butylurea] |  |  |  |  | > 256 µg/mL | 16.7 ± 6.5 µM |  |  | 655 µM |  |  |  |  |  |  |  | 
3 | Nc1ncc2cc(-c3c(Br)cccc3Br)c(N)nc2n1 [Compound 33, 6-(2,6-dibromophenyl)pyrido[2,3-d]pyrimidine-2,7-diamine] | 10 µM | 4 kcal/mol | 11 kcal/mol | -7 kcal/mol |  | 161 ± 73.7 µM | 38 ± 5 µM | ATP competitive inhibitors | 453 µM |  | < 0.005 µM | 0.5 µg/mL (≈ 1.27 µM) | 0,125 μg/ml | 1 µg/mL (≈ 2.53 µM) | 0,25 μg/ml |  | 
4 | Nc1ncc2cc(-c3ccc4c(c3)OCO4)c(N)nc2n1 [Compound 35, 6-(benzo[d][1,3]dioxol-5-yl)pyrido[2,3-d]pyrimidine-2,7-diamine] |  |  |  |  | > 256 µg/mL | 104 ± 36.2 µM |  |  | 1110 µM |  |  |  |  |  |  | > 300 °C | 
5 | N[C@@H]1CON=C1O [D-cycloserine, D-4-amino-3-isoxazolidone, reference compound] |  |  |  |  |  |  |  |  | 296 µM |  |  |  |  |  |  |  | 27 µM
